Patent publication US8883964B2, “Compositions comprising modified collagen and uses therefor” (The Johns Hopkins University, priority 2004, dated 2014)

What was measured:
[1] = Circular dichroism thermal melting (triple helix transition temperature); format: physicochemical; settings: for Tm (transition temperature determined by circular dichroism spectroscopy): measured in 57.5 μM acetic acid solution
Description: Circular dichroism (CD) spectra were recorded on JASCO 710 spectrometer equipped with JASCO PTC-348 WI temperature controller and Hellma cell (400 μL, 0.1 mm pathlength). The thermal melting curves were obtained by measuring the molar ellipticity at 225 nm with 1° C./min heating rate. All samples (57 μM in 50 mM acetic acid) were stored at 4° C. for 24 hours before the CD measurement.
The thermal melting curves were obtained by measuring the ellipticity of peptide in deionized (DI) water (0.5˜2 mM) at 225 nm with 0.1° C./min heating rate. All samples were stored at 4° C. for 24 hours before the measurement. (FIG. 15)
Triple-helical conformation of the CMP was confirmed by circular dichroism (CD) spectroscopy. Peptide samples (250 or 500 μM) were prepared in distilled water and incubated at 4° C. overnight before the CD measurement. CD was recorded between 180 and 280 nm on a JASCO'710 CD spectrometer at various temperatures under a nitrogen flow. Each measurement had static equilibrium time of 30 minutes.

[2] = molecular target: T1, collagen films (type I, bovine) (Bos taurus, UniProt P02453+P02465); test: CMP-collagen film affinity study (fluorescence intensity of treated films); format: binding; settings: for affinity toward collagen film (fluorescence intensity): solution pre-equilibrated at 25° C. or 80° C., both conditions, 3 h at room temperature
T1 construct: natural collagen (acid soluble, bovine type I); purchased Sigma
Description: The transition melting temperature of collagen film as determined by circular dichroism spectroscopy is shown at FIG. 4. To the collagen-coated cell culture wells (at room temperature) was added a solution of 2 which was pre-equilibrated at either 25° C. or 80° C. After three hours of incubation at room temperature, the collagen films were washed with buffer solution and observed by fluorescence microscope. As control samples, 5CF, fluorescein isothiocyanate-dextran (FITC-Dextran), and peptide 3 were used to treat collagen films under identical experimental conditions. […] Similar results were obtained when gelatin films were used as a substrate (FIG. 5A: Group c). In addition, the helical content of CMP treated collagen film was 3.5 times higher than that of the film treated with a blank solution (see support information).
In order to understand the effect of collagen film denaturation in the CMP binding process, a shorter CMP derivative was synthesized, peptide 4, with a melting temperature (25° C.) well below that of the collagen film. […] In addition, the modified collagen fiber retained its native banding texture when investigated by transmission electron microscopy (FIG. 6). Hotter solutions (60° C. and 80° C.) which denature the collagen film during the treatment produced collagen films with slightly higher CMP content (approximately 20% increase from that of the […] solution).
To each well of a 96-well culture plate was added 200 μl of saturated collagen (acid soluble, type I bovine) solution in 0.5 M acetic acid. The culture plate was air-dried to form transparent collagen films. The films were neutralized with 0.01 M potassium phosphate buffer (pH 7.4), and washed with distilled water. To the collagen-coated wells were added 40 μl of 0.01 M potassium phosphate solutions (pH 7.4) containing 50 μM of either CF (5-carboxyfluorescein), FITC-Dextran, and peptides 2, 3, or 4, which were pre-equilibrated at 25° C. or 80° C. After 3 hours of incubation at room temperature, the wells were washed with 0.01 M potassium phosphate buffer solution (pH 7.4) and observed by fluorescence microscope (Eclips ME 600, Nikon Corp). The total fluorescence intensity was acquired from the fluorescence micrographs using Meta Imaging Series V4.5, (Universal Imaging Corporation, Dowingtown Pa.). Average values of four independent experiments are reported.

[3] = molecular target: T2, Collagen (type I, bovine) film (Bos taurus, UniProt P02453+P02465); test: Helical content estimation of the modified collagen films by CD
T2 construct: natural collagen (acid soluble, bovine type I); purchased Sigma
Description: Collagen (type I, bovine) film was treated with either peptide 2 solution or blank buffer solution as described before. After 3 hr of incubation at room temperature, the wells were washed with 0.01 M potassium phosphate buffer solution (pH 7.4) and deionized water. All samples were dissolved in 50 mM acetic acid to a concentration of 1.80 μM or 3.60 μM and stored at 4° C. for 24 hours before the CD measurement. Average values of four independent experiments are reported (FIG. 4).

[4] = tested on: breast epithelial cells (MCF-7); test: Cell adhesion study on treated collagen film, breast epithelial cells; format: cell-based, human; settings: for invasion of treated films by fibroblasts or epithelial cells: summary statement
Description: (§1) The melting temperature of 5 was determined to be 29° C. which is 7° C. lower than the melting temperature of (ProHypGly)7 (SEQ ID NO: 40) (Table 1).^27 Here, the hydrophilic and bulky PEG group seems to destabilize the triple helix in water. A solution containing 5 at 45° C. was added to the collagen coated culture plate (prepared as above) and human fibroblasts or breast epithelial cells were seeded and incubated for three days at 37° C. […] In contrast, areas of collagen films treated with 5 are almost devoid of fibroblasts (FIG. 7B) and epithelial cells (FIG. 7C).
For applications where it is desirable to repel cell growth for prolonged periods (e.g., weeks or months), it is desirable to employ CMPs of increased length. In films that were treated with mPEG2000-Gly3-(Pro-Hyp-Gly)7 (SEQ ID NO: 6), cell growth extending into the treated area was observed after 3 days in culture (FIGS. 9A, 9B, and 9C). This might be due to the release of mPEG2000-Gly3-(Pro-Hyp-Gly)7 (SEQ ID NO: 6) from the PEG-CMP modified collagen film during incubation at 37° C.
(Pro-Hyp-Gly)8-Gly3-PEG5000-OH (SEQ ID NO: 26) with lengthened CMP and PEG, was designed to prolong the anti-adhesive property of pegylated CMP modified collagen to cells. Its melting temperature is 38° C. in PBS solution. A delay in invasive cell growth was observed on areas of the collagen film treated with (Pro-Hyp-Gly)8-Gly3-PEG5000-OH (SEQ ID NO: 26) (FIGS. 10A and FIG. 10B). […] It can also be seen from the images that cells outside the treated area grow vertically before invading the treated area.
(§2) To the collagen film (prepared as above) was added 10 μl of peptide 5 solution (2 mM in pH 7.4 potassium phosphate buffer). The film was allowed to dry and excess materials were removed by washing with potassium phosphate buffer (pH 7.4, 50 mM) and culture medium (DMEM or IMDM). Cells were added to the culture well and incubated at room temperature for 30 minutes. Human fibroblasts (CRL-1502) were seeded at 4.5×10^5 cell/ml cell density in DMEM and breast epithelial cells (MCF-7) at 5.6×10^5 cells/ml density in cell culture media (IMDM). The nonattached cells were removed by rinsing the well three times with growth medium and PBS buffer. The remaining cells were incubated at 37° C. (5% CO2) for three days. The growth medium was exchanged after 48 hours.

[5] = Circular dichroism thermal melting (triple helix transition temperature); format: physicochemical; settings: in PBS solution
[6] = tested on: Human fibroblasts (CRL-1502); test: Cell adhesion study on treated collagen film, human fibroblasts; format: cell-based; settings: three days at 37° C.
Description: as §1, §2

collagen film = molecular target: T3, collagen film (Bos taurus, UniProt P02453+P02465); test: Release of fluorescence-labeled CMP derivatives from collagen films; settings: 37° C., PBS solution pH 7.4
T3 construct: natural collagen (acid soluble, bovine type I); purchased Sigma
From the text: The release of fluorescence-labeled PEG-CMPs derivatives from collagen films is shown in (FIG. 11).

[7] = comparison value; cited from earlier work
collagen fibers (type I) = molecular target: T4, collagen fibers (type I) (Bos taurus, UniProt P02453+P02465); test: TEM analysis of the modified collagen fibers; design: species or system bovine; settings: treatment at 30° C.
T4 construct: natural collagen (acid soluble, bovine type I); purchased Sigma
Description: Collagen fibers were prepared by dialysis of collagen in 0.01M acetic acid solution against dilute NaCl solution. Peptide 4 in potassium phosphate buffer (400 μl, 500 μM, pH 7.4) was added to the collagen fibers in the PBS buffer (1 ml, 1 mg/ml, pH 7.4). The mixture was incubated for 3 hours and excess peptide 4 was removed by repeated centrifugation. The collagen fibers were resuspended in deionized water and transferred to a TEM grid. Uranyl acetate was used to stain the collagen fiber. (FIG. 6)

[8] = solution pre-equilibrated at 80° C.

T1 sequence (P02453 162-1217 limits assumed): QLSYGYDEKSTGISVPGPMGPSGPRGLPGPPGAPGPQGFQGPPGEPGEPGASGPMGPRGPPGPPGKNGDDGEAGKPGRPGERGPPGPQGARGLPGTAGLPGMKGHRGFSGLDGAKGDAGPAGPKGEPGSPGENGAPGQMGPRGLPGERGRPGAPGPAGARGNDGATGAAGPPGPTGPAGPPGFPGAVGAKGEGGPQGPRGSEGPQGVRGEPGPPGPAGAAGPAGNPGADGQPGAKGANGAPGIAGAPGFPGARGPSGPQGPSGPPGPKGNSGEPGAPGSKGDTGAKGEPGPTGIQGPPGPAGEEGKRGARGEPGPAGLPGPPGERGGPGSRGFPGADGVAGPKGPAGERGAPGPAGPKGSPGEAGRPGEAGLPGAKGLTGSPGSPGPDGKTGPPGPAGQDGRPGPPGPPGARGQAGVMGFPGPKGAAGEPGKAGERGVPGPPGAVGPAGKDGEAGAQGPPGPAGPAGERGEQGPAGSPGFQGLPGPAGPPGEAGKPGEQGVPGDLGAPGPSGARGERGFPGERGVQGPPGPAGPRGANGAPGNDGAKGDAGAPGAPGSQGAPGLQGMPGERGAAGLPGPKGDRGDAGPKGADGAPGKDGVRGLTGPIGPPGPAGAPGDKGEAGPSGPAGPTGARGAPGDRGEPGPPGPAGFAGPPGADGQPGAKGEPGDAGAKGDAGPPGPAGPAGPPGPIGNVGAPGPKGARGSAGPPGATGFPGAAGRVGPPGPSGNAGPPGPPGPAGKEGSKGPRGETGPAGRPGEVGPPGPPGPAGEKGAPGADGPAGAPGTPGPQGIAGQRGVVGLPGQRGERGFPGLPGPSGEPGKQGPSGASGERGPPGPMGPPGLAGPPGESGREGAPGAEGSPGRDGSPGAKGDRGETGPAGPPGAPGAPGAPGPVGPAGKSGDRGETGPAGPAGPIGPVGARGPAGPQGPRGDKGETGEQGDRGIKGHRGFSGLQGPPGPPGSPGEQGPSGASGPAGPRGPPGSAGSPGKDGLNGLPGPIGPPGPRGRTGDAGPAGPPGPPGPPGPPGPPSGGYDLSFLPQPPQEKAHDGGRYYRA
T1 sequence (P02465 80-1117 limits assumed): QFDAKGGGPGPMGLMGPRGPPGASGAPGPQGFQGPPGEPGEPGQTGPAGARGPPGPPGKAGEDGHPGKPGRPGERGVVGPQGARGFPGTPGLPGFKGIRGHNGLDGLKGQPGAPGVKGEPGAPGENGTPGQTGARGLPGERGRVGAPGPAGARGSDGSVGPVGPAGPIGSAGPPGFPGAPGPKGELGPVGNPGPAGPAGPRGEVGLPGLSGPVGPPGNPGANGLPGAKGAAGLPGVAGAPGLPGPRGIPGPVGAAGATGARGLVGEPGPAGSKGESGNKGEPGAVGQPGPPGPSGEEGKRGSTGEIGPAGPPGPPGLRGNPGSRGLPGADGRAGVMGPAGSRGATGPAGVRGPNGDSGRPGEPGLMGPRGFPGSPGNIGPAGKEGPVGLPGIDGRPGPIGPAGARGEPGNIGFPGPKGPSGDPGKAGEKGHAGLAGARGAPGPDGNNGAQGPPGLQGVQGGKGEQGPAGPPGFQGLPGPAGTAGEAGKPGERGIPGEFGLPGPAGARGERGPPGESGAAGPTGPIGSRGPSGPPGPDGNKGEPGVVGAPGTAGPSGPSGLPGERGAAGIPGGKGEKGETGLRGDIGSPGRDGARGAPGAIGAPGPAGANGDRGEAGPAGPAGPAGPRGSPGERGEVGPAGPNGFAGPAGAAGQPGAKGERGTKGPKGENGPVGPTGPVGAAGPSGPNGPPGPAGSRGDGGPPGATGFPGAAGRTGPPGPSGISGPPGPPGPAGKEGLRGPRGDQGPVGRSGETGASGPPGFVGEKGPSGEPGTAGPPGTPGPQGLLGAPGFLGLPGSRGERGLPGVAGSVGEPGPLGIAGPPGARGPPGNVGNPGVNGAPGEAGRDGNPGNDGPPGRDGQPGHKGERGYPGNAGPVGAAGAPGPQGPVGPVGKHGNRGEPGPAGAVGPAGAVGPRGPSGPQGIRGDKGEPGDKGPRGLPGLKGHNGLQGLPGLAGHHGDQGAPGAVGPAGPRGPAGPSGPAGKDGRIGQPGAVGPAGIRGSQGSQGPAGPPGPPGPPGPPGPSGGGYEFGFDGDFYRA
T2 sequence (P02453 162-1217 limits assumed): as the sequence (P02453 162-1217 limits assumed) above
T2 sequence (P02465 80-1117 limits assumed): as the sequence (P02465 80-1117 limits assumed) above
T3 sequence (P02453 162-1217 limits assumed): as the sequence (P02453 162-1217 limits assumed) above
T3 sequence (P02465 80-1117 limits assumed): as the sequence (P02465 80-1117 limits assumed) above
T4 sequence (P02453 162-1217 limits assumed): as the sequence (P02453 162-1217 limits assumed) above
T4 sequence (P02465 80-1117 limits assumed): as the sequence (P02465 80-1117 limits assumed) above

5CF-Gly3-(ProHypGly)10- [Compound 2]
Tm (CD melting transition temperature) ([1]; Cys-CMP derivatives, deionized water, ellipticity at 225 nm): 21 °C | Tm (transition temperature determined by circular dichroism spectroscopy) [1]: 75 °C | Tm (transition temperature determined by circular dichroism spectroscopy) ([1]; listed as peptide 2): 75 °C | fluorescence of treated collagen film ([2]; solution pre-equilibrated at 25° C.): negligible fluorescence | fluorescence of treated collagen film [2, 8]: strong fluorescence | helical content of treated collagen film relative to film treated with blank solution [3]: 3.5 times | original helical content of collagen film retained after treatment [3, 8]: 80%

(Pro-Hyp-Gly)8-Gly3-PEG5000-OH
time for which the treated gel repelled extensive cell growth [4]: close to eleven days | cell invasion into treated areas of the collagen film ([4]; after eleven days in culture): Extensive invasion | cell invasion into treated areas of the collagen film ([4]; after five days in culture): little invasion | cell invasion into treated areas of the collagen film ([4]; after nine days in culture): moderate invasion | invasion of treated films by fibroblasts or epithelial cells [4]: dramatically reduced invasion | melting temperature [5]: 38 °C

mPEG2000-Gly3-(ProHypGly)7- [Compound 5]
melting temperature lower than that of (ProHypGly)7 ([1]; difference): 7 °C | Tm (transition temperature determined by circular dichroism spectroscopy) [1]: 29 °C | fibroblasts on treated area of collagen film [6]: almost devoid | cell growth extending into the treated area observed after ([4]; in culture at 37° C.): 3 days | invasion of treated films by fibroblasts or epithelial cells [4]: dramatically reduced invasion | epithelial cells on treated area of collagen film ([4]; three days at 37° C.): almost devoid

(ProHypGly)7-Tyr
CD melting temperature (midpoint of CD melting curve) ([1]; peptide in distilled water): 38.5 °C

O=C(O)c1ccc2c(c1)C(=O)OC21c2ccc(O)cc2Oc2cc(O)ccc21 [Compound 5CF, 5-carboxyfluorescein, reference compound]
affinity toward collagen film (fluorescence intensity) [2]: negligible affinity

-(ProHypGly)10- [Compound 1]
Tm (transition temperature determined by circular dichroism spectroscopy) [1]: 69 °C

fluorescein isothiocyanate-dextran [FITC-Dextran, reference compound]
affinity toward collagen film (fluorescence intensity) [2]: negligible affinity

FL-PEG2000-Gly3-(Pro-Hyp-Gly)7
release from collagen film relative to 5CF-Gly3-(Pro-Hyp-Gly)8-Gly3-PEG5000-OH (collagen film): faster

(Pro-Hyp-Gly)7
melting temperature of unmodified (Pro-Hyp-Gly)7 CMP [7]: 37 °C

CH3O—(CH2—CH2—O)n—OH [mPEG2000, reference compound]
fibroblasts on treated area of collagen film [6]: Homogenous distribution of fibroblasts

5CF-Gly3-(ProHypGly)6- [Compound 4]
Tm (transition temperature determined by circular dichroism spectroscopy) [1]: 25 °C | Tm (transition temperature determined by circular dichroism spectroscopy) ([1]; listed as peptide 4): 25 °C | increase in CMP content of collagen film from that of the 30° C. solution ([2]; hotter solutions (60° C. and 80° C.)): approximately 20% | binding to collagen film ([2]; solution at 10° C.): Little binding | increase in CMP attachment compared to the 10° C. solution ([2]; solution pre-equilibrated at 30° C.): more than three-fold increase | banding pattern of collagen fibers after treatment (collagen fibers (type I)): native banding pattern
